Assay results: patent US7208612B2 (priority 2001, dated 2007)

Key:
[1] = tested on: V. harveyi LuxS- strain; format: cell-based, Vibrio harveyi
[2] = tested on: V. harveyi LuxP+, LuxS+ reporter strain (AI-2 detection system); test: Bioluminescence (light production) bioassay in LuxP+, LuxS+ reporter strain that produces its own AI-2; format: cell-based, Vibrio harveyi

Compound | response to autoinducer ([1]; latter strains (incl. LuxS-), same experimental conditions) | effect on bioluminescence ([1]; LuxS- strain) | induction of light production ([2]; addition of 1 mM boric acid during delay period) | induction of light production (fold) ([2]; boric acid concentrations as low as 10 μM)
C[C@@H](O)CC(=O)N[C@H]1CCOC1=O [AI-1] | wild-type responses |  |  | 
OB(O)O [Boric acid] |  | no effect | substantial induction | 10 fold
